Data published in patent US8680052B1, “Methods of treating, reducing the incidence of, and/or preventing ischemic events” (The Medicines Company, priority 2013, dated 2014).
Where two headings read alike, the source gives them in different places.

System: patients with acute coronary syndromes undergoing PCI
Conditions: 30 days; for All-cause mortality OR (95% CI) / IDR OR (95% CI) / MI OR (95% CI) / Mortality/MI/IDR OR (95% CI) / Mortality/Q-wave MI/IDR OR (95% CI) / Mortality/Q-wave MI/Stent thrombosis OR (95% CI) / Stent thrombosis OR (95% CI) / Q-wave MI OR (95% CI): Cangrelor vs Clopidogrel

## CSCCNc1nc(SCCC(F)(F)F)nc2c1ncn2[C@@H]1O[C@H](COP(=O)(O)OP(=O)(O)C(Cl)(Cl)P(=O)(O)O)[C@@H](O)[C@H]1O [Cangrelor, cangrelor]
ITT
  Stent thrombosis: 27 (0.6) no. (%)
  All-cause mortality OR (95% CI): 0.852 (0.558, 1.301)
  IDR OR (95% CI): 0.899 (0.637, 1.271)
  MI OR (95% CI): 1.095 (0.929, 1.291)
  Mortality/MI/IDR OR (95% CI): 1.026 (0.884, 1.192)
  Mortality/Q-wave MI/IDR OR (95% CI): 0.856 (0.655, 1.119)
  Mortality/Q-wave MI/Stent thrombosis OR (95% CI): 0.829 (0.599, 1.146)
  Q-wave MI OR (95% CI): 0.601 (0.263, 1.374)
  Stent thrombosis OR (95% CI): 0.902 (0.535, 1.519)
ITT With STEMI
  All-cause mortality: 8 (1.7) no. (%)
  IDR: 16 (3.4) no. (%)
  MI: 20 (4.2) no. (%)
  Mortality/MI/IDR: 36 (7.6) no. (%)
  Mortality/Q-wave MI/IDR: 23 (4.9) no. (%)
  Mortality/Q-wave MI/Stent thrombosis: 14 (3.0) no. (%)
  Q-wave MI: 2 (0.4) no. (%)
  Stent thrombosis: 7 (1.5) no. (%)
  All-cause mortality OR (95% CI): 0.524 (0.222, 1.235)
  IDR OR (95% CI): 1.139 (0.557, 2.331)
  MI OR (95% CI): 1.263 (0.653, 2.441)
  Mortality/MI/IDR OR (95% CI): 0.929 (0.582, 1.480)
  Mortality/Q-wave MI/IDR OR (95% CI): 0.778 (0.447, 1.355)
  Mortality/Q-wave MI/Stent thrombosis OR (95% CI): 0.560 (0.289, 1.085)
  Stent thrombosis OR (95% CI): 0.741 (0.280, 1.962)
ITT Without STEMI
  All-cause mortality: 32 (0.8) no. (%)
  IDR: 46 (1.2) no. (%)
  MI: 298 (7.6) no. (%)
  Mortality/MI/IDR: 345 (8.8) no. (%)
  Mortality/Q-wave MI/IDR: 79 (2.0) no. (%)
  Mortality/Q-wave MI/Stent thrombosis: 54 (1.4) no. (%)
  Q-wave MI: 7 (0.2) no. (%)
  Stent thrombosis: 20 (0.5) no. (%)
  All-cause mortality OR (95% CI): 1.027 (0.626, 1.687)
  IDR OR (95% CI): 0.846 (0.569, 1.257)
  MI OR (95% CI): 1.081 (0.912, 1.281)
  Mortality/MI/IDR OR (95% CI): 1.037 (0.886, 1.215)
  Mortality/Q-wave MI/IDR OR (95% CI): 0.891 (0.656, 1.211)
  Mortality/Q-wave MI/Stent thrombosis OR (95% CI): 0.959 (0.658, 1.397)
  Q-wave MI OR (95% CI): 0.463 (0.189, 1.138)
  Stent thrombosis OR (95% CI): 0.995 (0.535, 1.852)
MITT
  All-cause mortality: 40 (0.9) no. (%)
  IDR: 60 (1.4) no. (%)
  MI: 315 (7.3) no. (%)
  Mortality/MI/IDR: 376 (8.7) no. (%)
  Mortality/Q-wave MI/IDR: 100 (2.3) no. (%)
  Mortality/Q-wave MI/Stent thrombosis: 68 (1.6) no. (%)
  Q-wave MI: 9 (0.2) no. (%)
  Stent thrombosis: 27 (0.6) no. (%)
MITT With STEMI
  All-cause mortality: 8 (1.8) no. (%)
  IDR: 16 (3.7) no. (%)
  MI: 18 (4.1) no. (%)
  Mortality/MI/IDR: 34 (7.8) no. (%)
  Mortality/Q-wave MI/IDR: 23 (5.3) no. (%)
  Mortality/Q-wave MI/Stent thrombosis: 14 (3.2) no. (%)
  Q-wave MI: 2 (0.5) no. (%)
  Stent thrombosis: 7 (1.6) no. (%)
  All-cause mortality OR (95% CI): 0.732 (0.292, 1.838)
  IDR OR (95% CI): 1.165 (0.561, 2.416)
  MI OR (95% CI): 1.146 (0.577, 2.278)
  Mortality/MI/IDR OR (95% CI): 1.015 (0.619, 1.665)
  Mortality/Q-wave MI/IDR OR (95% CI): 0.929 (0.519, 1.663)
  Mortality/Q-wave MI/Stent thrombosis OR (95% CI): 0.665 (0.334, 1.325)
  Stent thrombosis OR (95% CI): 0.705 (0.266, 1.869)
MITT Without STEMI
  All-cause mortality: 32 (0.8) no. (%)
  IDR: 44 (1.1) no. (%)
  MI: 297 (7.7) no. (%)
  Mortality/MI/IDR: 342 (8.9) no. (%)
  Mortality/Q-wave MI/IDR: 77 (2.0) no. (%)
  Mortality/Q-wave MI/Stent thrombosis: 54 (1.4) no. (%)
